Molecular target: PLK1 (Homo sapiens, UniProt P53350)
Test: PLK1 Inhibition Assay I (radioactive-phosphate incorporation)
Format: biochemical
Conditions: Ki(app); PLK1 Inhibition Assay I or II (table does not say which)
Protocol: The compounds of the present invention are evaluated as inhibitors of human PLK kinase using the following assays.
Compounds were screened for their ability to inhibit PLK1 using a radioactive-phosphate incorporation assay. Assays were carried out in a mixture of 25 mM HEPES (pH 7.5), 10 mM MgCl2, and 1 mM DTT. Final substrate concentrations were 350 μM [γ-33P]ATP (136 mCi 33P ATP/mmol ATP, Amersham Pharmacia Biotech/Sigma Chemicals) and 450 μM peptide (KKKISDELMDATFADQEAK) [SEQ. ID:1]. Assays were carried out at 25° C. in the presence of 2 nM PLK1. An assay stock buffer solution was prepared containing all of the reagents listed above, with the exception of ATP and the test compound of interest. 30 μL of the stock solution was placed in a 96 well plate followed by addition of 2 μL of DMSO stock containing serial dilutions of the test compound (typically starting from a final concentration of 10 μM with 2-fold serial dilutions) in duplicate (final DMSO concentration 5%). The plate was pre-incubated for 10 minutes at 25° C. and the reaction initiated by addition of 8 μL [γ-33P]ATP (final concentration 350 μM).
The reaction was stopped after 240 minutes by the addition of 100 μL 0.14M phosphoric acid. A multiscreen phosphocellulose filter 96-well plate (Millipore, Cat No. MAPHN0B50) was pretreated with 100 μL 0.1 M phosphoric acid prior to the addition of 125 μL of the stopped assay mixture. The plate was washed with 4×200 μL 0.1 M phosphoric acid. After drying, 100 μL Optiphase ‘SuperMix’ liquid scintillation cocktail (Perkin Elmer) was added to the well prior to scintillation counting (1450 Microbeta Liquid Scintillation Counter, Wallac).
After removing mean background values for all of the data points, Ki(app) data were calculated from non-linear regression analysis of the initial rate data using the Prism software package (GraphPad Prism version 3.0cx for Macintosh, GraphPad Software, San Diego Calif., USA).

Sequence of PLK1 (P53350 whole entry): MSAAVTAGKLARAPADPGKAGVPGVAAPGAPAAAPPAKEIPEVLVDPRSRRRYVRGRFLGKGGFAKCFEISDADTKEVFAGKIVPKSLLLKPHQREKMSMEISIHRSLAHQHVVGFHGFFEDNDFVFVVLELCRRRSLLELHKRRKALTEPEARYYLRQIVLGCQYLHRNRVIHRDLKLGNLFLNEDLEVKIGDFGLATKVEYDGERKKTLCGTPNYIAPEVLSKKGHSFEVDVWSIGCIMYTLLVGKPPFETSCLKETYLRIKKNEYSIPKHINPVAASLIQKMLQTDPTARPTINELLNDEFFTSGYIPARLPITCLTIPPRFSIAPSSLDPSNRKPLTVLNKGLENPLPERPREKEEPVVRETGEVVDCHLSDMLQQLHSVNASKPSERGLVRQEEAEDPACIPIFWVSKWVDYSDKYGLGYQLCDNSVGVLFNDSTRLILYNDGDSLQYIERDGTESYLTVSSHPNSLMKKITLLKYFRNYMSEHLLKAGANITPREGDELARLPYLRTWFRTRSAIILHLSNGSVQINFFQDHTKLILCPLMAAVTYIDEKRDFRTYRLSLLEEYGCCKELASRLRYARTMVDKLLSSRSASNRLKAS

A Ki of over 40 nM was found for `N#Cc1cnc(NCc2nc3ccccc3[nH]2)nc1-c1c[nH]c2ncc(C(F)(F)F)cc12` [Compound I-30, 2-((1H-benzo[d]imidazol-2-yl)methylamino)-4-(5-(trifluoromethyl)-1H-pyrrolo[2,3-b]pyridin-3-yl)pyrimidine-5-carbonitrile] in this work.
A Ki of 3 to 40 nM was found for `C[C@@H](Nc1ncc(C#N)c(-c2c[nH]c3ncc(C(F)(F)F)cc23)n1)c1ccc2ccccc2c1` [Compound I-31, 2-((R)-1-(naphthalen-2-yl)ethylamino)-4-(5-(trifluoromethyl)-1H-pyrrolo[2,3-b]pyridin-3-yl)pyrimidine-5-carbonitrile] in this work.
A Ki of over 40 nM was found for `N#Cc1cnc(NCc2ccc(C(F)(F)F)nc2)nc1-c1c[nH]c2ncc(C(F)(F)F)cc12` [Compound I-32, 4-(5-(trifluoromethyl)-1H-pyrrolo[2,3-b]pyridin-3-yl)-2-((6-(trifluoromethyl)pyridin-3-yl)methylamino)pyrimidine-5-carbonitrile] in this work.
A Ki of over 40 nM was found for `C[C@@H](Nc1ncc(C#N)c(-c2c[nH]c3ncc(C(F)(F)F)cc23)n1)c1ccc(Br)cc1` [Compound I-33, 2-((R)-1-(4-bromophenyl)ethylamino)-4-(5-(trifluoromethyl)-1H-pyrrolo[2,3-b]pyridin-3-yl)pyrimidine-5-carbonitrile] in this work.
A Ki of over 40 nM was found for `N#Cc1cnc(NC2CCCc3ccccc32)nc1-c1c[nH]c2ncc(C(F)(F)F)cc12` (centres unmarked) [Compound I-34, 2-(1,2,3,4-tetrahydronaphthalen-1-ylamino)-4-(5-(trifluoromethyl)-1H-pyrrolo[2,3-b]pyridin-3-yl)pyrimidine-5-carbonitrile] in this work.
A Ki of 3 to 40 nM was found for `CCCC(C)Nc1ncc(C#N)c(-c2c[nH]c3ncc(C(F)(F)F)cc23)n1` (centres unmarked) [Compound I-35, 2-(pentan-2-ylamino)-4-(5-(trifluoromethyl)-1H-pyrrolo[2,3-b]pyridin-3-yl)pyrimidine-5-carbonitrile] in this work.
A Ki of 3 to 40 nM was found for `CC(C)CNc1ncc(C#N)c(-c2c[nH]c3ncc(C(F)(F)F)cc23)n1` [Compound I-36, 2-(isobutylamino)-4-(5-(trifluoromethyl)-1H-pyrrolo[2,3-b]pyridin-3-yl)pyrimidine-5-carbonitrile] in this work.
A Ki of over 40 nM was found for `N#Cc1cnc(NCc2ccc(O)c(O)c2)nc1-c1c[nH]c2ncc(C(F)(F)F)cc12` [Compound I-37, 2-(3,4-dihydroxybenzylamino)-4-(5-(trifluoromethyl)-1H-pyrrolo[2,3-b]pyridin-3-yl)pyrimidine-5-carbonitrile] in this work.
A Ki of over 40 nM was found for `N#Cc1cnc(NC2CCc3ccccc32)nc1-c1c[nH]c2ncc(C(F)(F)F)cc12` (centres unmarked) [Compound I-38, 2-(2,3-dihydro-1H-inden-1-ylamino)-4-(5-(trifluoromethyl)-1H-pyrrolo[2,3-b]pyridin-3-yl)pyrimidine-5-carbonitrile] in this work.
A Ki of 3 to 40 nM was found for `CCC(CO)Nc1ncc(C#N)c(-c2c[nH]c3ncc(C(F)(F)F)cc23)n1` (centres unmarked) [Compound I-39, 2-(1-hydroxybutan-2-ylamino)-4-(5-(trifluoromethyl)-1H-pyrrolo[2,3-b]pyridin-3-yl)pyrimidine-5-carbonitrile] in this work.
A Ki of over 40 nM was found for `CC(=O)NCCNc1ncc(C#N)c(-c2c[nH]c3ncc(C(F)(F)F)cc23)n1` [Compound I-40, N-(2-(5-cyano-4-(5-(trifluoromethyl)-1H-pyrrolo[2,3-b]pyridin-3-yl)pyrimidin-2-ylamino)ethyl)acetamide] in this work.
A Ki of over 40 nM was found for `CC(C)Oc1ccc(CNc2ncc(C#N)c(-c3c[nH]c4ncc(C(F)(F)F)cc34)n2)cc1` [Compound I-41, 2-(4-isopropoxybenzylamino)-4-(5-(trifluoromethyl)-1H-pyrrolo[2,3-b]pyridin-3-yl)pyrimidine-5-carbonitrile] in this work.
A Ki of over 40 nM was found for `COc1cc(CNc2ncc(C#N)c(-c3c[nH]c4ncc(C(F)(F)F)cc34)n2)ccc1O` [Compound I-42, 2-(4-hydroxy-3-methoxybenzylamino)-4-(5-(trifluoromethyl)-1H-pyrrolo[2,3-b]pyridin-3-yl)pyrimidine-5-carbonitrile] in this work.
A Ki of over 40 nM was found for `COC[C@@H](Nc1ncc(C#N)c(-c2c[nH]c3ncc(C(F)(F)F)cc23)n1)c1ccccc1` [Compound I-43, 2-((S)-2-methoxy-1-phenylethylamino)-4-(5-(trifluoromethyl)-1H-pyrrolo[2,3-b]pyridin-3-yl)pyrimidine-5-carbonitrile] in this work.
A Ki of over 40 nM was found for `CC(C)C[C@H](CO)Nc1ncc(C#N)c(-c2c[nH]c3ncc(C(F)(F)F)cc23)n1` [Compound I-44, 2-((R)-1-hydroxy-4-methylpentan-2-ylamino)-4-(5-(trifluoromethyl)-1H-pyrrolo[2,3-b]pyridin-3-yl)pyrimidine-5-carbonitrile] in this work.
A Ki of 3 to 40 nM was found for `C[C@@H](Nc1ncc(C#N)c(-c2c[nH]c3ncc(C(F)(F)F)cc23)n1)c1cccc(C(F)(F)F)c1` [Compound I-45, 4-(5-(trifluoromethyl)-1H-pyrrolo[2,3-b]pyridin-3-yl)-2-((R)-1-(3-(trifluoromethyl)phenyl)ethylamino)pyrimidine-5-carbonitrile] in this work.
A Ki of over 40 nM was found for `N#Cc1cnc(NCc2ccc(Oc3ccccc3)cc2)nc1-c1c[nH]c2ncc(C(F)(F)F)cc12` [Compound I-46, 2-(4-phenoxybenzylamino)-4-(5-(trifluoromethyl)-1H-pyrrolo[2,3-b]pyridin-3-yl)pyrimidine-5-carbonitrile] in this work.
A Ki of under 3 nM was found for `CC(C)[C@H](CO)Nc1ncc(C#N)c(-c2c[nH]c3ncc(C(F)(F)F)cc23)n1` [Compound I-47, 2-((R)-1-hydroxy-3-methylbutan-2-ylamino)-4-(5-(trifluoromethyl)-1H-pyrrolo[2,3-b]pyridin-3-yl)pyrimidine-5-carbonitrile] in this work.
A Ki of over 40 nM was found for `N#Cc1cnc(NCc2cc(F)cc(F)c2)nc1-c1c[nH]c2ncc(C(F)(F)F)cc12` [Compound I-48, 2-(3,5-difluorobenzylamino)-4-(5-(trifluoromethyl)-1H-pyrrolo[2,3-b]pyridin-3-yl)pyrimidine-5-carbonitrile] in this work.
A Ki of 3 to 40 nM was found for `N#Cc1cnc(NCC2(O)CCCCC2)nc1-c1c[nH]c2ncc(C(F)(F)F)cc12` [Compound I-49, 2-((1-hydroxycyclohexyl)methylamino)-4-(5-(trifluoromethyl)-1H-pyrrolo[2,3-b]pyridin-3-yl)pyrimidine-5-carbonitrile] in this work.
A Ki of over 40 nM was found for `N#Cc1cnc(NCc2ccc(Cl)nc2)nc1-c1c[nH]c2ncc(C(F)(F)F)cc12` [Compound I-50, 2-((6-chloropyridin-3-yl)methylamino)-4-(5-(trifluoromethyl)-1H-pyrrolo[2,3-b]pyridin-3-yl)pyrimidine-5-carbonitrile] in this work.
A Ki of under 3 nM was found for `CC(Nc1ncc(C#N)c(-c2c[nH]c3ncc(C(F)(F)F)cc23)n1)c1cccnc1` (centres unmarked) [Compound I-51, 2-(1-(pyridin-3-yl)ethylamino)-4-(5-(trifluoromethyl)-1H-pyrrolo[2,3-b]pyridin-3-yl)pyrimidine-5-carbonitrile] in this work.
A Ki of under 3 nM was found for `COc1ccc(C(C)Nc2ncc(C#N)c(-c3c[nH]c4ncc(C(F)(F)F)cc34)n2)cn1` (centres unmarked) [Compound I-52, 2-(1-(6-methoxypyridin-3-yl)ethylamino)-4-(5-(trifluoromethyl)-1H-pyrrolo[2,3-b]pyridin-3-yl)pyrimidine-5-carbonitrile] in this work.
A Ki of over 40 nM was found for `N#Cc1cnc(NCc2ccc(-c3cccs3)cc2)nc1-c1c[nH]c2ncc(C(F)(F)F)cc12` [Compound I-54, 2-(4-(thiophen-2-yl)benzylamino)-4-(5-(trifluoromethyl)-1H-pyrrolo[2,3-b]pyridin-3-yl)pyrimidine-5-carbonitrile] in this work.
A Ki of 3 to 40 nM was found for `N#Cc1cnc(NCc2ccc(-n3cncn3)cc2)nc1-c1c[nH]c2ncc(C(F)(F)F)cc12` [Compound I-55, 2-(4-(1H-1,2,4-triazol-1-yl)benzylamino)-4-(5-(trifluoromethyl)-1H-pyrrolo[2,3-b]pyridin-3-yl)pyrimidine-5-carbonitrile] in this work.
A Ki of 3 to 40 nM was found for `N#Cc1cnc(NCc2ccc3c(c2)OCO3)nc1-c1c[nH]c2ncc(C(F)(F)F)cc12` [Compound I-56] in this work.
A Ki of 3 to 40 nM was found for `N#Cc1cnc(NCC2CCOCC2)nc1-c1c[nH]c2ncc(C(F)(F)F)cc12` [Compound I-57, 2-((tetrahydro-2H-pyran-4-yl)methylamino)-4-(5-(trifluoromethyl)-1H-pyrrolo[2,3-b]pyridin-3-yl)pyrimidine-5-carbonitrile] in this work.
A Ki of 3 to 40 nM was found for `CC(C)[C@@H](CO)Nc1ncc(C#N)c(-c2c[nH]c3ncc(C(F)(F)F)cc23)n1` [Compound I-58, 2-((S)-1-hydroxy-3-methylbutan-2-ylamino)-4-(5-(trifluoromethyl)-1H-pyrrolo[2,3-b]pyridin-3-yl)pyrimidine-5-carbonitrile] in this work.
A Ki of 3 to 40 nM was found for `CN(C)c1ccc(CNc2ncc(C#N)c(-c3c[nH]c4ncc(C(F)(F)F)cc34)n2)cc1` [Compound I-59, 2-(4-(dimethylamino)benzylamino)-4-(5-(trifluoromethyl)-1H-pyrrolo[2,3-b]pyridin-3-yl)pyrimidine-5-carbonitrile] in this work.
